# In US20230263797A1, “Mammalian Hybrid Pre-Autophagosomal Structure HyPAS and Compositions and Methods for the Treatment of Coronavirus Infections and Related Disease States” (UNM Rainforest Innovations, priority 2021, published 2023):
# Key:
# HyPAS formation = test: High content microscopy (HCM) quantification of HyPAS formation (overlap between FIP200 and FLAG-ATG16L1); assay type: cell-based, human
# Method: (§1) HCM was performed as described previously (Kumar et al., 2019). Cells were stimulated for autophagy by incubating in EBSS for 2 h followed by fixation with 4% paraformaldehyde for 5 mins. Cells were permeabilized with 0.1% saponin and blocked in 3% BSA for 30 mins followed by incubation with primary antibody for 6 h and secondary antibody for 1 h. High content microscopy with automated image acquisition and quantification was carried out using a Cellomics HCS scanner and iDEV software (Thermo) in 96-well plates (Kumar et al., 2019). For HCM experiments >500 primary objects were counted per well, minimum 6 wells were counted per experiments and data presented in figures are derived from at least 3 independent experiments.
# Immunofluorescence confocal microscopy was carried out as described previously (Kumar et al., 2019). Briefly, cells were plated onto coverslips in 6 well or 12-well plates. Transfected cells were incubated in full media or EBSS (Earle's Balanced Salt Solution) for 2 h and fixed in 4% paraformaldehyde for 10 min followed by permeabilization with 0.1% saponin in 3% BSA. Cells were blocked 3% BSA and then incubated with primary antibodies for 4 h. Cells were washed three times with PBS and then incubated with appropriate secondary antibodies (Invitrogen) for 1 h at room temperature. Coverslips were then mounted using ProLong Gold Antifade Mountant (Invitrogen) and analyzed by confocal microscopy using the Zeiss LSM510 Laser Scanning Microscope.
# [1] = system: HyPAS formation in vitro (GFP-FIP200 and mCherry-ATG16L1 membranes); test: In vitro fusion ivitHC assay between GFP-FIP200 and mCherry-ATG16L1 membranes; assay type: biochemical; conditions: vesicles from cells induced for autophagy; BAPTA used at 20 μM
# Method: 293A WT or SIGMAR1^KO cells were plated in 96 well plates and transfected with indicated Keima plasmids. Cells were incubated in full media or induced for autophagy by incubating with EBSS for 8 h. Cells were then incubated in full media and incubated with Hoechst 33342 for ten minutes in full media and then acquired for Keima fluorescence at 440 nm and 560 nm using the Cell Insight CX7 High-Content Screening (HCS) Platform (Thermo)(Kumar et al., 2019). In Vitro Fusion ivitHC Assay In vitro fusion assay was developed for HCM platform by modifying a previously described assay (Matsui et al., 2018a; Moreau et al., 2011). […]
# One hypothesis that emerged from the above studies is that FIP200 and ATG16L1 represent two precursor membranes with STX17 facilitating heterotypic fusion between them early in autophagy. […] This method mixes vesicles from different cells expressing green (GFP-FIP200) and red (mCherry-ATG16L1) markers and after addition of an ATP and ATP-regenerating system vesicle fusion is monitored by fluorescence microscopy. We adapted this to permit HCM quantification allowing highly powered analyses and termed it IvitHC (in vitro fusion high content assay) (FIG. 2A). […]
# [2] = system: STX17 and E-SYT2 interactions; test: Co-IP analysis of interactions of STX17 with E-SYT2 in 293T cells; assay type: cell-based; conditions: CQ treatment
# Method: (§2) Immunoblotting and co-immunoprecipitation (co-IP) were performed as described previously (Kumar et al., 2018). For co-IP, cells were transfected with 10 μg of plasmids, wherever stated, and lysed in NP-40 buffer containing protease inhibitor cocktail (Roche, cat #11697498001) and PMSF (Sigma, cat #93482). Lysates were mixed with 5 μg antibody and incubated at 4° C. for overnight followed by incubation with Dynabeads protein G (Life Technologies) for 4 h, at 4° C. Beads were washed three times with PBS and then boiled with SDS-PAGE buffer for analysis of interacting protein by immunoblotting.
# [3] = system: STX17 and SERCA2 interactions; test: Co-IP analysis of interactions of STX17 with SERCA2 in 293T cells; assay type: cell-based; conditions: CQ treatment
# Method: as §2
# [4] = system: LC3-ATG16L1 overlap in HeLa cells; test: HCM colocalization between FLAG-ATG16L1 and LC3 (LAP-like noncanonical autophagy); assay type: cell-based, human; conditions: WT or STX17KO HeLa cells; monensin 100 μM for 1 h
# Method: as §1, with “Cells were stimulated for autophagy by incubating in EBSS for 2 h followed by fixation with 4% paraformaldehyde for 5 mins.” left out
smiles,measurement,setting,value
CC(=O)OCOC(=O)CN(CC(=O)OCOC(C)=O)c1ccccc1OCCOc1ccccc1N(CC(=O)OCOC(C)=O)CC(=O)OCOC(C)=O [BAPTA-AM],HyPAS formation,"HyPAS formation; STX17KO HeLa cells, starvation-induced autophagy, BAPTA-AM treatment",did not further affect
same,HyPAS formation,"HyPAS formation; WT HeLa cells, starvation-induced autophagy (EBSS, 2 h), BAPTA-AM treatment",reduced
"CN(C)CCN(C)CCc1ccc(Cl)c(Cl)c1 [BD1047, BD-1047]",HyPAS formation induced by starvation,"HyPAS formation; HeLa cells induced for autophagy (EBSS, 2 h), 10 μM for 1 h",inhibited
"CCN(CC)CCCC(C)Nc1ccnc2cc(Cl)ccc12 (stereo not shown) [CQ, chloroquine]",HyPAS formation in vitro (IvitHC),[1],inhibited
same,STX17 and E-SYT2 interactions (co-IP),[2],inhibited
same,STX17 and SERCA2 interactions (co-IP),[3],did not inhibit
"C/C=C(/C)C(=O)O[C@H]1C(C)=C2[C@H]([C@@H]1OC(=O)CCCCCCC)[C@@](C)(OC(C)=O)C[C@H](OC(=O)CCC)[C@@]1(O)[C@H]2OC(=O)[C@@]1(C)O [TG, thapsigargin]",Effect of TG on HyPAS formation,HyPAS formation; STX17KO HeLa cells,abrogated
same,HyPAS formation,"HyPAS formation; WT HeLa cells, basal conditions, thapsigargin treatment",increased
COc1ccc(CCN2CCN(CCCc3ccccc3)CC2)cc1OC [cutamesine],HyPAS formation,"HyPAS formation; cells grown in full medium, 100 nM for 2 h",induced
CC[C@@]1([C@@H]2O[C@@H]([C@H]3O[C@@](O)(CO)[C@H](C)C[C@@H]3C)C[C@@H]2C)CC[C@H]([C@]2(C)CC[C@]3(C[C@H](O)[C@@H](C)[C@@H]([C@@H](C)[C@@H](OC)[C@H](C)C(=O)O)O3)O2)O1 [monensin],"LC3-ATG16L1 overlap, as a measure of LAP-like noncanonical autophagy",[4],increase
